Assays:
Assay type in all cases: in vivo
[1] = tested on: H22 liver cancer; assay: Inhibition of KM mice-transplanted tumor of H22 liver cancer
Experimental: (1) Animal Kunming mice, half male and half female, body weight 16˜27 g.
Cell Lines H22 cell lines were mice liver cancer cells, and were subjected to suspension growth in RPMI-1640 media containing 10% calf serum, 100 U·ml^−1 penicillin, 100 μg·ml^−1 streptomycin, and cultured in an incubator at 37° C. under 5% CO2, followed by changing the medium and subculturing every two or three days.
(§1) Cell Culture H22 cells in exponential phase of growth were collected, centrifugated at 1000 rpm for 5 min, and washed twice. Viable cells were counted by trypan blue staining. The cells were quickly inoculated in abdominal cavity of KM mice, and after 7˜10 days, ascites were drawn and subcutaneously inoculated at the left forelimb armpit of mice at 0.2 ml/animal (containing about 2×10^7 cells). When tumor grew to 1 cm×1 cm×1 cm, mice were used in experiment. Mice tumors were aseptically stripped, and washed with Hank's solution thrice, to remove blood, fat and necrotic tissues. Tumors were cut to broken pieces of 1 mm×1 mm×1 mm, and washed with Hank's solution twice, to which physiological saline was added at a ratio of (1 g:3 ml), and then ground in a glass homogenizer and filtered by 80-100 mesh sieve to make a suspension of single cell. Viable cells were counted by trypan blue staining.
(§2) On the second day after inoculation, a dosage of 0.2 ml·10 g^−1 was administrated by intravenous injection (iv), once a day. When the average tumor weight in negative group was more than 1.0 g (tumor volume being about 0.5 cm^3), the experiment was stopped, and mice were sacrificed by cervical vertebrae removal and weighed. Tumors were stripped to calculate inhibitory rate.

[2] = tested on: EMT-6 breast cancer; assay: Inhibition of BABLc mice-transplanted tumor of EMT-6 breast cancer; settings: for Inhibitory rate / Tumor weight: 9 days
Experimental: (1) Animal BABLc mice, ♀, body weight 17˜21 g
Cell Lines EMT-6 cell lines were mice breast cancer cells, and grew adhering to the wall in RPMI-1640 complete media containing 10% calf serum, 1 mmol/L glutamine, 100 U·ml^−1 penicillin and 100 μg·ml^−1 streptomycin, and were cultured in an incubator at 37° C. under 5% CO2, followed by changing the medium and subculturing every two or three days.
as §1, with “Viable” for “Cell Culture H22 cells in exponential phase of growth were collected, centrifugated at 1000 rpm for 5 min, and washed twice. Viable”, “Cell suspension was” for “The cells were quickly inoculated in abdominal cavity of KM mice, and after 7˜10 days, ascites were drawn and”, “1×10^7 cells), and after” for “2×10^7 cells). When”
as §2, with “administrated to each group” for “administrated”, “intraperitoneal” for “intravenous”, “(ip) for successive 9 days,” for “(iv),”, “the” for “the average”, “g(tumor” for “g (tumor”

[3] = tested on: human brain glioma; assay: Inhibition of mice-transplanted human brain glioma; settings: for Inhibitmy rate / Tumor weight: 15 days, mice
Experimental: Human brain glioma cell lines were obtained from Key Laboratory of Transplant Engineering and Immunology, Ministry of health, West China Hospital, Sichuan University.
(1) Model establishment Mice were divided into groups, 10 mice for each group. The solution of brain glioblastoma cell lines was suitably diluted, and inoculated in cortex of left temporal lobe of mice, respectively.
Administration and intervention 24 h after inoculation, mice in each group were administrated by intraperitoneal injection. […] Each group was administrated for successive 15 days.
Determination of tumor inhibitory rate On the last day, the administration was stopped, and all mice were sacrificed and dissected. Tumor tissues were stripped and weighed. Tumor inhibitory rate %=(The mean tumor weight of control group−The mean tumor weight of drug groups)[The mean tumor weight of control group]×100%.
Statistical method The variance analysis of data was performed using the statistical program software package (SPSS13.0 for Windows), and p<0.05 was considered to be a statistically significant difference.

[4] = compared with the negative control group, obvious in the dosage groups of 10 mg/kg-60 mg/kg
[5] = 1 mg·kg^−1 intraperitoneal injection
[6] = 5 mg·kg^−1 intraperitoneal injection
[7] = 10 mg·kg^−1 intraperitoneal injection
[8] = 30 mg·kg^−1 intraperitoneal injection
[9] = 40 mg·kg^−1 intraperitoneal injection
[10] = 50 mg·kg^−1 intraperitoneal injection
[11] = 60 mg·kg^−1 intraperitoneal injection
[12] = 70 mg·kg^−1 intraperitoneal injection
[13] = 90 mg·kg^−1 intraperitoneal injection
[14] = 100 mg·kg^−1 intraperitoneal injection

With O=C(/C=C/c1ccc(O)c(O)c1)O[C@@H]1C[C@](O)(C(=O)O)C[C@@H](O)[C@H]1O [Chlorogenic acid of the present invention] the Inhibitory rate ([1]; 1 mg·kg^−1 iv once a day) was 8.8%, the Tumor weight ([1]; 1 mg·kg^−1 iv once a day) was 2.141 ± 0.333 g and the Inhibitory rate ([1]; 5 mg·kg^−1 iv once a day) was 24.7%. For the same molecule, the Tumor weight ([1]; 5 mg·kg^−1 iv once a day) was 1.768 ± 0.667 g, the Inhibitory rate ([1]; 10 mg·kg^−1 iv once a day) was 46.3% and the Tumor weight ([1]; 10 mg·kg^−1 iv once a day) was 1.261 ± 0.388 g. For the same molecule, the Inhibitory rate ([1]; 20 mg·kg^−1 iv once a day) was 54.8%, the Inhibitory rate ([1]; 30 mg·kg^−1 iv once a day) was 67.9% and the Tumor weight ([1]; 30 mg·kg^−1 iv once a day) was 0.754 ± 0.071 g. The Inhibitory rate ([1]; 40 mg·kg^−1 iv once a day) was 72.2%, the Tumor weight ([1]; 40 mg·kg^−1 iv once a day) was 0.653 ± 0.238 g and the Inhibitory rate ([1]; 50 mg·kg^−1 iv once a day) was 57.5%. The Tumor weight ([1]; 50 mg·kg^−1 iv once a day) was 0.998 ± 0.207 g, the Inhibitory rate ([1]; 60 mg·kg^−1 iv once a day) was 42.9% and the Tumor weight ([1]; 60 mg·kg^−1 iv once a day) was 1.341 ± 0.356 g. It also gave an Inhibitory rate ([1]; 70 mg·kg^−1 iv once a day) of 31.9%, an Inhibitory rate ([1]; 80 mg·kg^−1 iv once a day) of 24.1% and a Tumor weight ([1]; 80 mg·kg^−1 iv once a day) of 1.782 ± 0.122 g. It also gave an Inhibitory rate ([1]; 90 mg·kg^−1 iv once a day) of 16.7%, a Tumor weight ([1]; 90 mg·kg^−1 iv once a day) of 1.956 ± 0.581 g and an Inhibitory rate ([1]; 100 mg·kg^−1 iv once a day) of 11.5%. For the same molecule, the Tumor weight ([1]; 100 mg·kg^−1 iv once a day) was 2.078 ± 0.326 g, the “inhibitory action on KM mice-transplanted tumor of H22 liver cancer” value [1, 4] was “obviously inhibitory action” and the Inhibitory rate ([2]; 1 mg·kg^−1 ip once a day) was 26.40%. The Tumor weight ([2]; 1 mg·kg^−1 ip once a day) was 0.987 ± 0.154 g, the Inhibitory rate ([2]; 5 mg·kg^−1 ip once a day) was 41.16% and the Tumor weight ([2]; 5 mg·kg^−1 ip once a day) was 0.789 ± 0.087 g. For the same molecule, the Inhibitory rate ([2]; 10 mg·kg^−1 ip once a day) was 48.55%, the Tumor weight ([2]; 10 mg·kg^−1 ip once a day) was 0.690 ± 0.188 g and the Inhibitory rate ([2]; 20 mg·kg^−1 ip once a day) was 69.95%. The Inhibitory rate ([2]; 30 mg·kg^−1 ip once a day) was 68.01%, the Inhibitory rate ([2]; 40 mg·kg^−1 ip once a day) was 66.37% and the Tumor weight ([2]; 40 mg·kg^−1 ip once a day) was 0.451 ± 0.097 g. For the same molecule, the Inhibitory rate ([2]; 50 mg·kg^−1 ip once a day) was 60.55%, the Tumor weight ([2]; 50 mg·kg^−1 ip once a day) was 0.529 ± 0.168 g and the Inhibitory rate ([2]; 60 mg·kg^−1 ip once a day) was 49.22%. It also gave a Tumor weight ([2]; 60 mg·kg^−1 ip once a day) of 0.681 ± 0.156 g, an Inhibitory rate ([2]; 70 mg·kg^−1 ip once a day) of 47.95% and a Tumor weight ([2]; 70 mg·kg^−1 ip once a day) of 0.698 ± 0.112 g. It also gave an Inhibitory rate ([2]; 80 mg·kg^−1 ip once a day) of 41.16%, a Tumor weight ([2]; 80 mg·kg^−1 ip once a day) of 0.789 ± 0.087 g and an Inhibitory rate ([2]; 90 mg·kg^−1 ip once a day) of 35.94%. For the same molecule, the Tumor weight ([2]; 90 mg·kg^−1 ip once a day) was 0.859 ± 0.0754 g, the Inhibitory rate ([2]; 100 mg·kg^−1 ip once a day) was 25.80% and the Tumor weight ([2]; 100 mg·kg^−1 ip once a day) was 0.995 ± 0.0256 g. The “inhibitory action on BABLc mice-transplanted tumor of EMT-6” value [2, 4] was “obviously inhibitory action”, the Inhibitmy rate [3, 5] was 13.30% and the Tumor weight [3, 5] was 1.258 ± 0.254 g. For the same molecule, the Inhibitmy rate [3, 6] was 16.06%, the Tumor weight [3, 6] was 1.218 ± 0.187 g and the Inhibitmy rate [3, 7] was 52.45%. For the same molecule, the Tumor weight [3, 7] was 0.690 ± 0.128 g, the Inhibitmy rate ([3]; 20 mg·kg^−1 intraperitoneal injection) was 70.71% and the Inhibitmy rate [3, 8] was 68.57%. The Tumor weight [3, 8] was 0.456 ± 0.128 g, the Inhibitmy rate [3, 9] was 62.03% and the Tumor weight [3, 9] was 0.551 ± 0.087 g. For the same molecule, the Inhibitmy rate [3, 10] was 56.65%, the Tumor weight [3, 10] was 0.629 ± 0.068 g and the Inhibitmy rate [3, 11] was 51.69%. For the same molecule, the Tumor weight [3, 11] was 0.701 ± 0.256 g, the Inhibitmy rate [3, 12] was 31.22% and the Tumor weight [3, 12] was 0.998 ± 0.212 g. The Inhibitmy rate ([3]; 80 mg·kg^−1 intraperitoneal injection) was 18.06%, the Inhibitmy rate [3, 13] was 13.23% and the Tumor weight [3, 13] was 1.259 ± 0.124 g. For the same molecule, the Inhibitmy rate [3, 14] was 8.27%, the Tumor weight [3, 14] was 1.331 ± 0.156 g and the “inhibitory action on mice-transplanted tumor of human brain glioma” value [3, 4] was “obviously inhibitory action”.

From patent publication US10314806B2 (SICHUAN JIUZHANG BIOLOGICAL SCIENCE AND TECHNOLOGY CO., LTD., priority 2014, dated 2019)
